Reference: patent publication US20260240832A1, “USE OF NITROXOLINE COMPOUND IN ENHANCING EFFECT OF ANTIBACTERIAL AGENT” (Jiangsu Yahong Meditech Co., Ltd., priority 2022, published 2026)
Where two headings read alike, the source gives them in different places.

Tests used:
[1] = test system: carbapenem-resistant Acinetobacter baumannii; assay: Chessboard microbroth dilution MIC/FIC, compound 2 in combination with polymyxin; format: cell-based; conditions: for Polymyxin MIC in combination: with compound 2; for MIC: Acinetobacter baumannii, read-out: Compound 2 MIC alone; for Compound 2 MIC in combination: with polymyxin
Text: This experiment is designed to determine the minimum inhibitory concentration (MIC) of compound 2 in combination with polymyxin against carbapenem-resistant Acinetobacter baumannii and to calculate the fractional inhibitory concentration (FIC) index.
(§1) Test bacteria: 10 strains of carbapenem-resistant Acinetobacter baumannii are clinically isolated strains, and are provided by Shanghai Junji Medical Laboratory Co., Ltd.
According to the recommendation of the Clinical and Laboratory Standards Institute (CLSI), the microbroth dilution method designed by the chessboard method was used to determine the minimum inhibitory concentration (MIC) of compound 2 in combination with polymyxin against the above strains, and the fractional inhibitory concentration (FIC) index was calculated.
Compound 2 was dissolved in dimethyl sulfoxide to obtain a stock solution I with a concentration of 51200 mg/L. The stock solution I was subjected to 1:1 gradient dilution with dimethyl sulfoxide to obtain a dilution solution with a concentration range of 51200 to 25 mg/L. The corresponding concentrations were added to sterile water for 100-fold dilution to obtain working solution I with a concentration range of 512 to 0.25 mg/L.
Polymyxin was dissolved in sterile water to obtain a stock solution with a concentration of 5120 mg/L. The […] stock solution was subjected to 1:1 gradient dilution with sterile water to obtain a working solution II with a concentration range of 512 to 0.25 mg/L.
(§2) According to the method in Example 1, a drug sensitive plate was prepared with working solution I and working solution II, and the specific process will not be repeated here.
(§3) (2) The culture medium of the bacterial solution: Cation-Adjusted Mueller-Hinton Broth (CAMHB), a product of BBL, USA, batch number 9015952.
(§4) (3) Formulation method of bacterial solution: According to the direct colony suspension method, the test bacteria cultured overnight were prepared into a 0.5 McFarland turbidity tube using physiological saline. Then, the resulting solution was dilute 100 times with the above culture medium. 100 μL of the resulting bacterial solution was mixed well with the solution (100 μL) in each well of the drug sensitivity plate, and the final inoculation amount was 10^5 CFU/mL.
(§5) (4) Culture conditions: Culturing at 35±2° C. for 20 hours in air.
(§6) (1) The experimental results were determined according to the standard of CLSI 2020 M100 30th edition.
(§7) wherein: FIC≤0.5 indicates synergistic effect; 0.5<FIC≤1.0 indicates additive effect; 1<FIC≤2.0 indicates irrelevant effect; and FIC>2 indicates antagonistic effect.

[2] = test system: carbapenem-resistant Acinetobacter baumannii; assay: Chessboard microbroth dilution MIC/FIC, compound 1 in combination with polymyxin; format: cell-based; conditions: for Polymyxin MIC in combination: with compound 1
Text: This experiment is designed to determine the minimum inhibitory concentration (MIC) of compound 1 in combination with polymyxin against carbapenem-resistant Acinetobacter baumannii and to calculate the fractional inhibitory concentration (FIC) index.
as §1
According to the recommendation of the Clinical and Laboratory Standards Institute (CLSI), the microbroth dilution method designed by the chessboard method was used to determine the minimum inhibitory concentration (MIC) of compound 1 in combination with polymyxin against the above strains, and the fractional inhibitory concentration (FIC) index was calculated.
Compound 1 was dissolved in dimethyl sulfoxide to obtain a stock solution I with a concentration of 51200 mg/L. The stock solution I was subjected to 1:1 gradient dilution with dimethyl sulfoxide to obtain a dilution solution with a concentration range of 51200 to 25 mg/L. The corresponding concentrations were added to sterile water for 100-fold dilution to obtain working solution I with a concentration range of 512 to 0.25 mg/L.
Polymyxin was dissolved in sterile water to obtain a stock solution with a concentration of 5120 mg/L. The polymyxin stock solution was subjected to 1:1 gradient dilution with sterile water to obtain a working solution II with a concentration range of 512 to 0.25 mg/L.
as §2, §3, §4, §5, §6, §7

[3] = strain 18-J11-001, compound 2 + polymyxin
[4] = strain 18-J11-002, compound 2 + polymyxin
[5] = strain 18-J11-034, compound 2 + polymyxin
[6] = strain 18-J11-097, compound 2 + polymyxin
[7] = strain 18-J15-030, compound 2 + polymyxin
[8] = strain 18-J21-095, compound 2 + polymyxin
[9] = strain 18-J24-015, compound 2 + polymyxin
[10] = strain 18-J24-033, compound 2 + polymyxin
[11] = strain 18-J40-021, compound 2 + polymyxin
[12] = strain 18-J51-052, compound 2 + polymyxin

polymyxin E [reference compound]
Polymyxin MIC alone ([1]; strain 18-J11-001): 0.5 µg/mL | Polymyxin MIC in combination ([1]; strain 18-J11-001): 0.125 µg/mL | Polymyxin MIC alone ([1]; strain 18-J11-002): 1 µg/mL | Polymyxin MIC in combination ([1]; strain 18-J11-002): 0.25 µg/mL | Polymyxin MIC alone ([1]; strain 18-J11-034): 0.5 µg/mL | Polymyxin MIC in combination ([1]; strain 18-J11-034): 0.25 µg/mL | Polymyxin MIC alone ([1]; strain 18-J11-097): 0.5 µg/mL | Polymyxin MIC in combination ([1]; strain 18-J11-097): 0.125 µg/mL | Polymyxin MIC alone ([1]; strain 18-J15-030): 0.5 µg/mL | Polymyxin MIC in combination ([1]; strain 18-J15-030): 0.25 µg/mL | Polymyxin MIC alone ([1]; strain 18-J21-095): 0.5 µg/mL | Polymyxin MIC in combination ([1]; strain 18-J21-095): 0.25 µg/mL | Polymyxin MIC alone ([1]; strain 18-J24-015): 1 µg/mL | Polymyxin MIC in combination ([1]; strain 18-J24-015): 0.25 µg/mL | Polymyxin MIC alone ([1]; strain 18-J24-033): 1 µg/mL | Polymyxin MIC in combination ([1]; strain 18-J24-033): 0.125 µg/mL | Polymyxin MIC alone ([1]; strain 18-J40-021): 1 µg/mL | Polymyxin MIC in combination ([1]; strain 18-J40-021): 0.25 µg/mL | Polymyxin MIC alone ([1]; strain 18-J51-052): 1 µg/mL | Polymyxin MIC in combination ([1]; strain 18-J51-052): 0.25 µg/mL | Polymyxin MIC alone ([2]; strain 18-J11-001): 0.25 µg/mL | Polymyxin MIC in combination ([2]; strain 18-J11-001): 0.06 µg/mL | Polymyxin MIC alone ([2]; strain 18-J11-002): 0.25 µg/mL | Polymyxin MIC in combination ([2]; strain 18-J11-002): 0.06 µg/mL | Polymyxin MIC alone ([2]; strain 18-J11-034): 0.5 µg/mL | Polymyxin MIC in combination ([2]; strain 18-J11-034): 0.125 µg/mL | Polymyxin MIC alone ([2]; strain 18-J11-097): 0.25 µg/mL | Polymyxin MIC in combination ([2]; strain 18-J11-097): 0.06 µg/mL | Polymyxin MIC alone ([2]; strain 18-J15-030): 0.5 µg/mL | Polymyxin MIC in combination ([2]; strain 18-J15-030): 0.125 µg/mL | Polymyxin MIC alone ([2]; strain 18-J21-095): 0.25 µg/mL | Polymyxin MIC in combination ([2]; strain 18-J21-095): 0.06 µg/mL | Polymyxin MIC alone ([2]; strain 18-J24-015): 0.5 µg/mL | Polymyxin MIC in combination ([2]; strain 18-J24-015): 0.125 µg/mL | Polymyxin MIC alone ([2]; strain 18-J24-033): 0.5 µg/mL | Polymyxin MIC in combination ([2]; strain 18-J24-033): 0.125 µg/mL | Polymyxin MIC alone ([2]; strain 18-J40-021): 1 µg/mL | Polymyxin MIC in combination ([2]; strain 18-J40-021): 0.125 µg/mL | Polymyxin MIC alone ([2]; strain 18-J51-052): 0.5 µg/mL | Polymyxin MIC in combination ([2]; strain 18-J51-052): 0.125 µg/mL

O=[N+]([O-])c1c(Cl)c(F)c2cccnc2c1O [Compound 2, 5-fluoro-6-chloro-7-nitroquinolin-8-ol]
MIC ([1]; strain 18-J11-001): 8 µg/mL | MIC ([1]; strain 18-J11-002): 4 µg/mL | MIC ([1]; strain 18-J11-034): 4 µg/mL | MIC ([1]; strain 18-J11-097): 4 µg/mL | MIC ([1]; strain 18-J15-030): 4 µg/mL | MIC ([1]; strain 18-J21-095): 4 µg/mL | MIC ([1]; strain 18-J24-015): 4 µg/mL | MIC ([1]; strain 18-J24-033): 4 µg/mL | MIC ([1]; strain 18-J40-021): 4 µg/mL | MIC ([1]; strain 18-J51-052): 4 µg/mL | change of the MIC of polymyxin by the combination ([1]; compound 2 + polymyxin): significantly reduce | effect of the combination (summary of Table 3) ([1]; compound 2 + polymyxin): synergistic effect or additive effect | FIC index [1, 3]: 0.375 | Results [1, 3]: Synergistic | Compound 2 MIC in combination ([1]; strain 18-J11-001): 1 µg/mL | FIC index [1, 4]: 0.500 | Results [1, 4]: Synergistic | Compound 2 MIC in combination ([1]; strain 18-J11-002): 1 µg/mL | FIC index [1, 5]: 0.750 | Results [1, 5]: Additive | Compound 2 MIC in combination ([1]; strain 18-J11-034): 1 µg/mL | FIC index [1, 6]: 0.375 | Results [1, 6]: Synergistic | Compound 2 MIC in combination ([1]; strain 18-J11-097): 0.5 µg/mL | FIC index [1, 7]: 0.750 | Results [1, 7]: Additive | Compound 2 MIC in combination ([1]; strain 18-J15-030): 1 µg/mL | FIC index [1, 8]: 1.000 | Results [1, 8]: Additive | Compound 2 MIC in combination ([1]; strain 18-J21-095): 2 µg/mL | FIC index [1, 9]: 0.500 | Results [1, 9]: Synergistic | Compound 2 MIC in combination ([1]; strain 18-J24-015): 1 µg/mL | FIC index [1, 10]: 0.625 | Results [1, 10]: Additive | Compound 2 MIC in combination ([1]; strain 18-J24-033): 2 µg/mL | FIC index [1, 11]: 0.500 | Results [1, 11]: Synergistic | Compound 2 MIC in combination ([1]; strain 18-J40-021): 1 µg/mL | FIC index [1, 12]: 0.500 | Results [1, 12]: Synergistic | Compound 2 MIC in combination ([1]; strain 18-J51-052): 1 µg/mL
